Common to all, as to type: functional
The subject of test [1] is Pseudoperonospora cubensis. The experiment in a line: Antifungal activity against Pseudoperonospora cubensis in cucumber assessed as lesion area of the disease at 500 ug/ml after 7 days.
Another test concerns Botrytis cinerea. The experiment in a line: Antifungal activity against Botryotinia fuckeliana in cucumber cotyledon assessed as lesion area of the disease at 500 ug/ml after 4 days.
For a further test, the system named is Blumeria graminis. The experiment in a line: Antifungal activity against Blumeria graminis in wheat plant assessed as lesion area of the disease at 500 ug/ml after 10 days.
Another test deals with Puccinia recondita. The experiment in a line: Antifungal activity against Puccinia recondita in wheat plant assessed as lesion area of the disease at 500 ug/ml after 10 days.

For the compound `CCC1(C(=O)NC(C)c2ccc(Cl)s2)C(C)C1(Cl)Cl` (configuration not stated), the Activity result in test [1] is “>=80%”; in the test with Botrytis cinerea, “>=80%”; with Blumeria graminis it was “>=80%”; in the test with Puccinia recondita it was 1.5%.
Consider `CC(C)(C)C(C#N)C(=O)NCCc1csc(Cl)c1` (configuration not stated), for which the Activity entry in test [1] is recorded as “>=80%”; in the test on Botrytis cinerea, “>=80%”; in the test on Blumeria graminis, “>=80%”; in the test on Puccinia recondita, 1.5%.
On to `CCC1(C(=O)NCCc2cc(Cl)c(Cl)s2)C(C)C1(Cl)Cl` (configuration not stated), for which the Activity entry (in test [1]; in the test with Botrytis cinerea; in the test on Blumeria graminis; in the test with Puccinia recondita) was “>=80%” in each case.
On to `CCC1(C(=O)NCCc2cccc(Cl)c2)C(C)C1(Cl)Cl` (configuration not stated), for which the Activity is listed as 0% in test [1], “>=80%” in the test on Botrytis cinerea, 2.5% in the test with Blumeria graminis and less than 40% in the test with Puccinia recondita.
In the case of `CC1(C(=O)NCCc2csc(Cl)c2)CC1(Cl)Cl` (configuration not stated), the Activity in test [1] is 0.5%; with Botrytis cinerea it was “>=80%”; in the test with Blumeria graminis it was “>=80%”; with Puccinia recondita, 0.5%.
For the compound `CC(NC(=O)C1(C2CCCC2)CC1(Cl)Cl)c1ccc(Cl)cc1` (configuration not stated), the Activity result (in test [1]; with Botrytis cinerea; in the test with Blumeria graminis; with Puccinia recondita) was “>=80%” each time.
For `CC1(C)C(C(=O)NCCc2csc(Cl)c2)C1(Cl)Cl` (configuration not stated), the Activity is on record as 1.5% in test [1], “>=80%” with Botrytis cinerea, “>=80%” with Blumeria graminis and 1.5% with Puccinia recondita.
As to `CCC1(C(=O)NC(C)C2CC2(Cl)Cl)C(C)C1(Cl)Cl` (configuration not stated), the Activity entry (in test [1]; in the test on Botrytis cinerea; in the test with Blumeria graminis; in the test on Puccinia recondita) was “>=80%” throughout.
Turning to `CCC1(C(=O)NC(C)Cc2ccc(Cl)cc2)C(C)C1(Cl)Cl` (configuration not stated), the Activity entry (in test [1]; with Botrytis cinerea; with Blumeria graminis; in the test on Puccinia recondita) was “>=80%” throughout.
Regarding `CC(C)(C)C(Br)C(=O)NCCc1csc(Cl)c1` (configuration not stated), the Activity entry is given as “>=80%” in test [1], “>=80%” with Botrytis cinerea, “>=80%” with Blumeria graminis and less than 20% in the test with Puccinia recondita.
Regarding `CCC1(C(=O)NC(C)C2CCC2)C(C)C1(Cl)Cl` (configuration not stated), the Activity result (in test [1]; in the test with Botrytis cinerea; in the test with Blumeria graminis; in the test with Puccinia recondita) was “>=80%” in each case.
Regarding `CCC1(C(=O)NC(C)c2csc(Cl)c2)C(C)C1(Cl)Cl` (configuration not stated), the Activity is given as less than 20% in test [1], “>=80%” in the test on Botrytis cinerea, “>=80%” in the test with Blumeria graminis and “>=80%” in the test with Puccinia recondita.
With `CCC1(C(=O)NC(C)C2CCCCCC2)C(C)C1(Cl)Cl` (configuration not stated), the Activity in test [1] was 0%; in the test on Botrytis cinerea, “>=80%”; in the test on Blumeria graminis it was “>=80%”; in the test with Puccinia recondita it was “>=80%”.
Turning to `CCC1(C(=O)NC(C)C2CCCC2)C(C)C1(Cl)Cl` (configuration not stated), the Activity is recorded as 0% in test [1], 3.5% in the test on Botrytis cinerea, “>=80%” in the test on Blumeria graminis and “>=80%” in the test on Puccinia recondita.
Consider `CCC1(C(=O)NC(C)CC(F)(F)F)C(C)C1(Cl)Cl` (configuration not stated), for which the Activity result (in test [1]; in the test with Botrytis cinerea; in the test on Blumeria graminis; with Puccinia recondita) was “>=80%” in each case.
Take `CCC1(C(=O)NCCc2ccc(C)cc2)C(C)C1(Cl)Cl` (configuration not stated): the Activity entry is “>=80%” in test [1], “>=80%” in the test on Botrytis cinerea, 2.5% in the test with Blumeria graminis and “>=80%” in the test with Puccinia recondita.
In the case of maneb, the Activity (in test [1]; in the test on Puccinia recondita) was 0% each time.
On to `CCC1(C(=O)NC(C)C)C(C)C1(Cl)Cl` (configuration not stated), for which the Activity in test [1] is listed as 0%; in the test with Botrytis cinerea, 3.5%; in the test on Blumeria graminis, “>=80%”; with Puccinia recondita, “>=80%”.
Consider `CCCC1(C(=O)NCCc2csc(Cl)c2)CC1(Cl)Cl` (configuration not stated), for which the Activity entry was “>=80%” in test [1], 0.5% in the test on Botrytis cinerea, “>=80%” in the test on Blumeria graminis and “>=80%” in the test on Puccinia recondita.
`CCC1(C(=O)NCC(C)c2ccc(Cl)cc2)C(C)C1(Cl)Cl` (configuration not stated): the Activity is listed as less than 20% in test [1], “>=80%” in the test on Botrytis cinerea, “>=80%” with Blumeria graminis and “>=80%” in the test on Puccinia recondita.
As to `CCC1(C(=O)NCCc2ccc(Cl)cc2Cl)C(C)C1(Cl)Cl` (configuration not stated), the Activity entry (in test [1]; with Botrytis cinerea; with Blumeria graminis; with Puccinia recondita) was “>=80%” each time.
For the compound `CCC1(C(=O)NCCc2ccc(C(F)(F)F)cc2)C(C)C1(Cl)Cl` (configuration not stated), the Activity entry is on record as “>=80%” in test [1], “>=80%” with Botrytis cinerea, 0.5% in the test on Blumeria graminis and “>=80%” in the test on Puccinia recondita.
For the compound `CCC1(C(=O)NCc2ccc(Cl)cc2)C(C)C1(Cl)Cl` (configuration not stated), the Activity in test [1] was less than 20%; in the test on Botrytis cinerea it was “>=80%”; in the test with Blumeria graminis, “>=80%”; with Puccinia recondita, “>=80%”.
Consider `CCC1(C(=O)NCCc2csc(Cl)n2)C(C)C1(Cl)Cl` (configuration not stated), for which the Activity is 0% in test [1], “>=80%” with Botrytis cinerea, “>=80%” in the test on Blumeria graminis and 0.5% in the test with Puccinia recondita.
On to `CCC1(C(=O)NCCc2csc(Cl)c2)C(C)C1(Cl)Cl` (configuration not stated), for which the Activity in test [1] is recorded as 0.5%; with Botrytis cinerea, “>=80%”; with Blumeria graminis it was “>=80%”; in the test with Puccinia recondita, “>=80%”.
For `N#Cc1c[nH]cc1-c1cccc2c1OC(F)(F)O2` [FLUDIOXONIL], the Activity in the test on Botrytis cinerea came out at 0%.
Take `CCC1(C(=O)OCCc2csc(Cl)c2)C(C)C1(Cl)Cl` (configuration not stated): the Activity was less than 20% in test [1], 2.5% in the test on Botrytis cinerea, “>=80%” in the test on Blumeria graminis and “>=80%” with Puccinia recondita.
As for `CCC1(C(=O)NCCCc2ccc(Cl)cc2)C(C)C1(Cl)Cl` (configuration not stated), the Activity is 0% in test [1], “>=80%” with Botrytis cinerea, “>=80%” with Blumeria graminis and “>=80%” with Puccinia recondita.
As to `CCC1(C(=O)NCCc2cc(Cl)sc2Cl)C(C)C1(Cl)Cl` (configuration not stated), the Activity result (in test [1]; in the test on Botrytis cinerea; in the test with Blumeria graminis; in the test with Puccinia recondita) was “>=80%” in each case.
As for `CCC1(C(=O)NCCc2ccsc2)C(C)C1(Cl)Cl` (configuration not stated), the Activity entry in test [1] is “>=80%”; with Botrytis cinerea, “>=80%”; in the test with Blumeria graminis, “>=80%”; with Puccinia recondita, less than 40%.
In the case of `CCC(C)NC(=O)C1(CC)C(C)C1(Cl)Cl` (configuration not stated), the Activity result is “>=80%” in test [1], less than 20% with Botrytis cinerea, “>=80%” in the test on Blumeria graminis and “>=80%” in the test on Puccinia recondita.
Take `CCC1(C(=O)NC(C)C2CCCCC2)C(C)C1(Cl)Cl` (configuration not stated): the Activity result (in test [1]; with Botrytis cinerea; in the test on Blumeria graminis; in the test with Puccinia recondita) was “>=80%” in each case.
Take `CCC1(C(=O)NCCc2ccccc2Cl)C(C)C1(Cl)Cl` (configuration not stated): the Activity result (in test [1]; with Botrytis cinerea; in the test on Blumeria graminis; in the test with Puccinia recondita) was “>=80%” throughout.
For the compound `CCC1(C(=O)NCCc2ccc(F)cc2F)C(C)C1(Cl)Cl` (configuration not stated), the Activity in test [1] was 0%; with Botrytis cinerea, less than 20%; in the test on Blumeria graminis, 2.5%; in the test with Puccinia recondita it was “>=80%”.
In the same order, the values of `CC(C)(C)C(Cl)C(=O)NCCc1csc(Cl)c1` (configuration not stated) are “>=80%”, “>=80%”, “>=80%” and “>=80%”.
In the same order, the values of `CC1(C)C(Cl)(Cl)C1(C)C(=O)NCCc1csc(Cl)c1` (configuration not stated) are “>=80%”, “>=80%”, less than 20% and 0.5%.
With `CCC1(C(=O)NCCc2ccc(Cl)s2)C(C)C1(Cl)Cl` (configuration not stated), the Activity entry in test [1] is “>=80%”; in the test on Botrytis cinerea, “>=80%”; in the test with Blumeria graminis, “>=80%”; with Puccinia recondita it was 1.5%.
For the compound `CC(NC(=O)C1(C(C)C)CC1(Cl)Cl)c1ccc(Cl)cc1` (configuration not stated), the Activity entry in test [1] was “>=80%”; in the test with Botrytis cinerea it was “>=80%”; in the test with Blumeria graminis, “>=80%”; in the test on Puccinia recondita, less than 20%.
Turning to `CCC1(C(=O)NCCc2ccc(F)cc2)C(C)C1(Cl)Cl` (configuration not stated), the Activity entry in test [1] was “>=80%”; with Botrytis cinerea, “>=80%”; with Blumeria graminis it was less than 20%; in the test with Puccinia recondita, less than 40%.
With `CCC1(C(=O)NCCc2ccc(Cl)cc2)C(C)C1(Cl)Cl` (configuration not stated), the Activity in test [1] is reported as 3.5%; with Botrytis cinerea it was “>=80%”; with Blumeria graminis, “>=80%”; in the test on Puccinia recondita it was “>=80%”.
For `CC(C)(C)CC(=O)NCCc1csc(Cl)c1`, the Activity result was “>=80%” in test [1], “>=80%” in the test on Botrytis cinerea, 1.5% in the test on Blumeria graminis and “>=80%” in the test with Puccinia recondita.
For the compound `CCC1(C(=O)Nc2ccc(Cl)cc2)C(C)C1(Cl)Cl` (configuration not stated), the Activity entry (in test [1]; in the test on Botrytis cinerea; in the test with Blumeria graminis; with Puccinia recondita) was “>=80%” in each case.
On to `CCC1(C(=O)NC(C)C2CC3C=CC2C3)C(C)C1(Cl)Cl` (configuration not stated), for which the Activity result in test [1] is reported as “>=80%”; with Botrytis cinerea, less than 40%; in the test on Blumeria graminis, “>=80%”; in the test on Puccinia recondita, “>=80%”.
Take `CCC1(C(=O)NCCc2ccc(Br)cc2)C(C)C1(Cl)Cl` (configuration not stated): the Activity result (in test [1]; in the test with Botrytis cinerea; in the test on Blumeria graminis; with Puccinia recondita) was “>=80%” throughout.
Consider `CC(Cc1ccc(C(C)(C)C)cc1)CN1CCCCC1` (configuration not stated) [FENPROPIDIN], for which, in the test on Blumeria graminis, the Activity is given as 0%.
